Measured values from PubChem BioAssay AID855 (Emory University Molecular Libraries Screening Center, 2007).
Active and inactive are the calls of the source. How the calls were made is not given here.

Target: Eukaryotic translation initiation factor 4E (Mus musculus) + Eukaryotic translation initiation factor 4 gamma 1 (Homo sapiens) (UniProt P63073+Q04637)
Assay: eIF4E–eIF4G protein interaction inhibitors, dose response, biochemical, TR-FRET (AID 855)
Details: eIF4E/eIF4G binding, TR-FRET 665/620 nm

Sequence of Eukaryotic translation initiation factor 4E (Mus musculus) + Eukaryotic translation initiation factor 4 gamma 1 (Homo sapiens) (P63073 whole entry, looked up): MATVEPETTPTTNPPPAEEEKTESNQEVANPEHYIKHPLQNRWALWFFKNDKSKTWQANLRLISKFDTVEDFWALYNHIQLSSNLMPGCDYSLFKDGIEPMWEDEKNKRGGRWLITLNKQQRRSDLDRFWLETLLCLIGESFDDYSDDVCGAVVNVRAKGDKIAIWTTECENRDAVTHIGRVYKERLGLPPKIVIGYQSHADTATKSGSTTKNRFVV
Sequence of Eukaryotic translation initiation factor 4E (Mus musculus) + Eukaryotic translation initiation factor 4 gamma 1 (Homo sapiens) (Q04637 whole entry, looked up): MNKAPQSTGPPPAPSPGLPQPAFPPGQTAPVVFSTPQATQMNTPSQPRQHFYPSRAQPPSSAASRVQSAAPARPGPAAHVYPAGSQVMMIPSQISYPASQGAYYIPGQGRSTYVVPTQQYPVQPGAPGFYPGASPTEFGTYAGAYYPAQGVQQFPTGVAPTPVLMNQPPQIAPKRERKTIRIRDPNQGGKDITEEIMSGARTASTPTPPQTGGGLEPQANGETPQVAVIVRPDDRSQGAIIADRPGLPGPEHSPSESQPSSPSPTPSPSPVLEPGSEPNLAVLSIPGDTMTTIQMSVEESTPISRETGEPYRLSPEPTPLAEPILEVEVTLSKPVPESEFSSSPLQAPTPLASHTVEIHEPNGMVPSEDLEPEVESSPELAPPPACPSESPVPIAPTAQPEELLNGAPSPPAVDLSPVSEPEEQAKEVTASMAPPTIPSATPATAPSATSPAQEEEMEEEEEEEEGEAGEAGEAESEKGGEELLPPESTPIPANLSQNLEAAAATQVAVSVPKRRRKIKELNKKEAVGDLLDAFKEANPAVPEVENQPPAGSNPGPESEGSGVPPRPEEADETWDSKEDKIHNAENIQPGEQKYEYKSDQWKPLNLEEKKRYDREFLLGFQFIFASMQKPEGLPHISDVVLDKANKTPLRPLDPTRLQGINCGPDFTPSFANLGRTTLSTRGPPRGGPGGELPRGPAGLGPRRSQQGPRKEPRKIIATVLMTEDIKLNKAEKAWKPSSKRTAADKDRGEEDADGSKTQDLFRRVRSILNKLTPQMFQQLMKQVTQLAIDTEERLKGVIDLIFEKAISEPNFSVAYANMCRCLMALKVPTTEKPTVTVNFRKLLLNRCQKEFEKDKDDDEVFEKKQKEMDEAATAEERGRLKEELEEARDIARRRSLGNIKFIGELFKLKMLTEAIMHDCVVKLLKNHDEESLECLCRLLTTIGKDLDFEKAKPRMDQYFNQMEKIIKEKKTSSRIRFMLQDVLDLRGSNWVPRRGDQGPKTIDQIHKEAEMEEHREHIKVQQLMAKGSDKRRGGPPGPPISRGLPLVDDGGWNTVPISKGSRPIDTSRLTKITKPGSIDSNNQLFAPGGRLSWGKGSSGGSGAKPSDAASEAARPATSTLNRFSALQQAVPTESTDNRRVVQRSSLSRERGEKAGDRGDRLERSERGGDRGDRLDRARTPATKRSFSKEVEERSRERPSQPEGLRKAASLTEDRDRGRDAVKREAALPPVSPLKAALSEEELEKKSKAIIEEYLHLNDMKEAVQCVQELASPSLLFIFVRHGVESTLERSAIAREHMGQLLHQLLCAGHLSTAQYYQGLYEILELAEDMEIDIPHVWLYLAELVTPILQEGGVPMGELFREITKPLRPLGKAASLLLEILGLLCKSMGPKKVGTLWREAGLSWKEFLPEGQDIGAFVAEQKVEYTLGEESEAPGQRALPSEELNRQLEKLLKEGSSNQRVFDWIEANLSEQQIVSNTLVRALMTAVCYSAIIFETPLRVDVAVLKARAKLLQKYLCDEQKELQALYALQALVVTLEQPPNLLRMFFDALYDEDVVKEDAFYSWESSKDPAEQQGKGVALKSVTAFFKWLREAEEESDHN

Compound | IC50
O=C1CC(c2ccco2)CC(O)=C1C=Nc1cc(Cl)cc(Cl)c1 (stereo not given) | > 64 µM (inactive)

Same assay, conditions: eIF4E/eIF4G binding, TR-FRET 665/620 nm; at 64 µM (top of the series)

Compound | percent of control, lower = inhibition
O=C(NC1CCCC1)c1cnc2n(c1=O)CCS2 | inactive
Cc1nn(CCC#N)c2c1P(=S)(N1CCCC1)OC(c1ccc(F)cc1)=N2 (stereo not given) | inactive
CCN=C(N/N=C/c1ccc([N+](=O)[O-])cc1)SC | inactive
CCOC(=O)c1ccccc1NC(=O)Cn1cnc2c(nnn2-c2ccc(C)cc2)c1=O | inactive
O=C(CSCC(=O)Nc1ccc2ccccc2c1)NCc1ccccc1 | inactive
Cc1cc(NC(=O)CSc2ccccc2)no1 | inactive
CCn1c2ccccc2c2nc3cc(S(=O)(=O)N4CCOCC4)ccc3nc21 | inactive
O=C(OCCN1C(=O)c2cccc3c(N4CCOCC4)ccc(c23)C1=O)c1cc(Cl)cc(Cl)c1 | inactive
O=C(/N=C1\NC(=O)C(F)(C(F)(F)F)S1)NC1CCCCC1 (stereo not given) | inactive
CCn1c(C2CC(=O)N(Cc3ccccc3)C2)nc2ccccc21 (stereo not given) | inactive
CN1CCCN(Cc2ccccc2C(F)(F)F)CC1 | inactive
CC(=O)Nc1ccc(S(=O)(=O)NNC(=O)COc2cccc(C)c2)cc1 | inactive
CC(=O)Nc1ccnc(-c2cccnc2)n1 | inactive
Cc1noc(C)c1CSc1nc2cc(S(=O)(=O)N3CCOCC3)ccc2o1 | inactive
C=CCNC(=O)COc1cc(C)ccc1C | inactive
CCNC(=O)c1ccc(CSc2ccc(Cl)cc2)cc1 | inactive
CCOC(=O)C(C)n1ncn2cccc2c1=O (stereo not given) | inactive
COc1ccc(C(=O)Nc2ccc3oc(Cc4ccc(Cl)cc4)nc3c2)cc1OC | inactive
CCOc1ccc(-c2nc(=S)[nH][nH]2)cc1 | inactive
O=C(Nc1nnc(C23CC4CC(CC(C4)C2)C3)s1)c1ccc(N2C(=O)CCC2=O)cc1 | inactive
N#C/C(=C\c1sc(N2CCOCC2)nc1-c1ccccc1)C(=O)Nc1cccc2ccccc12 | inactive
O=C(CCn1[nH]c(=O)c2ccccc2c1=O)NCCO | inactive
COc1cc(CC(=O)Nc2ccc3c(c2)CCC3)cc(OC)c1OC | inactive
O=C(N/N=C/c1ccccc1O)c1cc(=O)[nH]c2ccccc12 | inactive
CCOC(=O)c1c(NC(=O)c2cc(-c3ccc(O)cc3)on2)sc(C(C)=O)c1C | inactive
COc1c(Cl)cc(-c2noc(C)c2C(=O)NC(C)C)cc1Cl | inactive
Cc1[nH]n(-c2ccccc2)c(=S)c1C=Nc1cccc([N+](=O)[O-])c1 | inactive
CCN(CC)S(=O)(=O)c1ccc(Cl)c(C(=O)Oc2cccnc2)c1 | inactive
CCC(C(=O)NC(C)CCc1ccco1)n1nc(C)n2c(cc3occc32)c1=O (stereo not given) | inactive
